The values below come from BindingDB's records for doi:10.1021/acs.jmedchem.0c00249 (China Pharmaceutical University, 2020).

Test [1] is described as follows: Inhibition of SHP2 E76K mutant in splenocytes derived from JMML patient assessed as reduction in cell proliferation in presence of GM-CSF.
Test [2] is described as follows: Inhibition of SHP2 E76K mutant in splenocytes derived from JMML patient assessed as reduction in GM-CSF induced colony formation of myeloid blast cells measured after 14 days.

Structures are written as SMILES.

Take `Cc1cc(C)c2[nH]c3nc(SCC(=O)Nc4cccc5ccccc45)nnc3c2c1`: the values for the IC50 in test [1] and in test [2] were 3.09 µM and 7.24 µM, respectively.
